Test results as given in PMC10726475, “Atypical N-Alkyl to N-Noralkoxy Switch in a Dual cSRC/BCR-ABL1 Kinase Inhibitor Improves Drug Efflux and hERG Affinity” (ACS Medicinal Chemistry Letters, 2023).
Converted amounts (≈) assume the structure as drawn. Like-named read-outs stand apart in the source and are kept apart here. Each block holds one compound with its values, some of them ahead of it.

Experiments:
KU812 cells = assay: Cell viability assay (CellTiter-Glo), KU812; assay type: cell-based, human; settings: read-out: IC50 (72 h), KU812 Cell Line, mean ± SEM, n = 3, unadjusted for FBS
MEG-01 cells = assay: Cell viability assay (CellTiter-Glo), MEG-01; assay type: cell-based, human; settings: read-out: IC50 (72 h), MEG-01 Cell Line, mean ± SEM, n = 3, unadjusted for FBS
Molt-4 cells = assay: Cell viability assay (CellTiter-Glo), Molt-4; assay type: cell-based, human; settings: BCR-ABL1 negative
SUP-B15 cells = assay: Cell viability assay (CellTiter-Glo), SUP-B15; assay type: cell-based, human; settings: read-out: IC50 (72 h), SUP-B15 Cell Line, mean ± SEM, n = 3, unadjusted for FBS
MDCKII-MDR1 cells [1] = assay: MDCKII-MDR1 cell permeability
Caco-2 cells = assay: Caco-2 cell permeability
P-gp (MDR1) = assay: in vitro; settings: dog, MDCK-MDR1
in vitro = settings: human, Caco-2
MDCKII-MDR1 cells [2] = settings: dog, MDCK-MDR1
CYP2D6 = CYP2D6 (Homo sapiens, UniProt P10635); assay: in vitro; settings: both, microsomes, CYP2D6 Inhibition percentage(%) at Top conc.
[3] = Metabolic stability in rat hepatocytes; assay type: in vitro ADME
[4] = Metabolic stability in human liver microsomes; assay type: in vitro ADME
[5] = Plasma protein binding by equilibrium dialysis, rat; assay type: in vitro ADME; settings: for fu, plasma % / %Unbound: 5 μM, equilibrium dialysis
[6] = logD7.4 by shake-flask method; assay type: physicochemical; settings: pH 7.4
[7] = Metabolic stability in rat liver microsomes; assay type: in vitro ADME
[8] = Metabolic stability in human hepatocytes; assay type: in vitro ADME
[9] = set-up: method as in NDA application no. 203341 Pharmacology Review(s) page 40; settings: nude mice, 50 mg/kg po and 5 mg/kg iv dosing, ref NDA application no. 203341 Pharmacology Review(s) page 40; cited from earlier work
[10] = Solubility in aqueous buffer at pH 7.4; assay type: physicochemical; settings: aqueous buffer at pH 7.4, n = 1; read-out: aq sol.
[11] = Plasma protein binding by equilibrium dialysis, human; assay type: in vitro ADME

Sequence of CYP2D6 (P10635 whole entry): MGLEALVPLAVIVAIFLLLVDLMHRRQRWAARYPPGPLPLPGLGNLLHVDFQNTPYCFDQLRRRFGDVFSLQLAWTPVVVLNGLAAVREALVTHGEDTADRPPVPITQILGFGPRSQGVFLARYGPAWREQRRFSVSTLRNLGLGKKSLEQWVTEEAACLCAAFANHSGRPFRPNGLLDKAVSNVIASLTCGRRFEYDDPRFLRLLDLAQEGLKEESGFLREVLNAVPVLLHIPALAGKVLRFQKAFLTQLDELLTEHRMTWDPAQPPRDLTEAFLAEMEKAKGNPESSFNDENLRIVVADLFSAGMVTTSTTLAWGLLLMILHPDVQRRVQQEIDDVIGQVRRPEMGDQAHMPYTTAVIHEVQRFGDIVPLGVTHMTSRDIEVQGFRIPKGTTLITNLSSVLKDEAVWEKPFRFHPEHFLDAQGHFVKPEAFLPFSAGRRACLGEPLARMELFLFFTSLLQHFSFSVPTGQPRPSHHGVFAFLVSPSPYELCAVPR

Structure (SMILES): N.N.[Cl][Pt][Cl] [Cisplatin, cisplatin]
IC50 (KU812 cells): 1500 ± 103 nM
IC50 (MEG-01 cells): 5100 ± 318 nM
IC50 (Molt-4 cells; read-out: IC50 (72 h), Molt-4 Cell Line, 72 h): 1340 ± 89 nM
IC50 (SUP-B15 cells): 987 ± 36 nM

Structure (SMILES): C[C@H]1O[C@@H](O[C@H]2[C@@H](O)C[C@H](O[C@H]3[C@@H](O)C[C@H](O[C@H]4CC[C@@]5(C)[C@H](CC[C@@H]6[C@@H]5C[C@@H](O)[C@]5(C)[C@@H](C7=CC(=O)OC7)CC[C@]65O)C4)O[C@@H]3C)O[C@@H]2C)C[C@H](O)[C@@H]1O [Digoxin]
Recovery% (BL-AP) (MDCKII-MDR1 cells [1]): 92.45%
Recovery% (BL-AP) (Caco-2 cells): 101.40%
Papp A→B at 2 h, 1 μM (P-gp (MDR1)): 0.26 ×10⁻⁶ cm/s
Papp B→A at 2 h, 1 μM (P-gp (MDR1)): 10.2 ×10⁻⁶ cm/s
efflux ratio at 2 h, 1 μM (P-gp (MDR1)): 38.6
recovery (P-gp (MDR1)): 96.3%
Papp A→B at 2 h, 5 μM (in vitro): 0.34 ×10⁻⁶ cm/s
Papp B→A at 2 h, 5 μM (in vitro): 15.6 ×10⁻⁶ cm/s
efflux ratio at 2 h, 5 μM (in vitro): 45.6
recovery (in vitro): 103%

Structure (SMILES): COc1cc(Nc2c(C#N)cnc3cc(OCCCN4CCN(C)CC4)c(OC)cc23)c(Cl)cc1Cl [bosutinib]
Remaining Percentages, 0.5 min [3]: 100.00%
Remaining Percentages, 15 min [3]: 50.17%
Remaining Percentages, 30 min [3]: 21.78%
Remaining Percentages, 60 min [3]: 5.83%
Remaining Percentages, 90 min [3]: 1.83%
Remaining Percentages, 120 min [3]: 0.73%
half-life at 2 h ([3]; male, SD): 13.4 min
hepatocyte CLint at 2 h ([3]; male, SD): 103 µL/min/1e6 cells
Recovery% (BL-AP) (MDCKII-MDR1 cells [1]): 65.52%
Remaining Percentage, 0.5 min ([4]; +Cofactors): 100.00%
Remaining Percentage, 15 min ([4]; +Cofactors): 12.40%
Remaining Percentage, 30 min ([4]; +Cofactors): 2.94%
Remaining Percentage, 45 min ([4]; +Cofactors): 1.16%
Remaining Percentage, 60 min ([4]; +Cofactors): BLOD
Remaining Percentage, 0.5 min ([4]; -Cofactors): 100.00%
Remaining Percentage, 60 min ([4]; -Cofactors): 91.23%
half-life at 1 h ([4]; both sexes, pooled): 4.8 min
microsomal CLint at 1 h ([4]; both sexes, pooled, read-out: LMClint): 288 µL/min/mg
Recovery% (BL-AP) (Caco-2 cells): 70.73%
fu, plasma % / %Unbound [5]: 7.2%
fu, plasma % / %Unbound ([5]; listed as Bosutinib): 7.20%
recovery ([5]; both sexes, SD): 91.1%
remaining at 6 h, 5 μM ([5]; both sexes, SD): 90.7%
fraction unbound at 5 μM ([5]; both sexes, SD, read-out: fu, plasma % / %Unbound (converted)): 0.072
logD at 2 h [6]: 3.1
Remaining Percentage, 0.5 min ([7]; +Cofactors): 100.00%
Remaining Percentage, 15 min ([7]; +Cofactors): 14.79%
Remaining Percentage, 30 min ([7]; +Cofactors): 5.02%
Remaining Percentage, 45 min ([7]; +Cofactors): 2.62%
Remaining Percentage, 0.5 min ([7]; -Cofactors): 100.00%
half-life at 1 h ([7]; male, SD, pooled): 5.3 min
microsomal CLint at 1 h ([7]; male, SD, pooled, read-out: LMClint): 264 µL/min/mg
Remaining Percentages, 0.5 min [8]: 100.00%
Remaining Percentages, 15 min [8]: 73.99%
Remaining Percentages, 30 min [8]: 79.28%
Remaining Percentages, 60 min [8]: 53.95%
Remaining Percentages, 90 min [8]: 34.15%
Remaining Percentages, 120 min [8]: 20.73%
half-life at 2 h ([8]; both sexes): 54.9 min
hepatocyte CLint at 2 h ([8]; both sexes): 25.3 µL/min/1e6 cells
recovery (P-gp (MDR1)): 56%
IC50 (Molt-4 cells; Homo sapiens, MOLT-4, read-out: IC50, Molt-4): > 2000 nM
AUCinf [9]: 11 677 h·nM
Cmax [9]: 1510 nM
solubility [10]: 14 µM (≈ 7.43 µg/mL)
fu, plasma % / %Unbound ([11]; 5 μM, equilibrium dialysis): 4.53%
recovery ([11]; both sexes): 94%
fraction unbound at 6 h, 5 µM ([11]; both sexes, 5 μM, equilibrium dialysis, read-out: fu, plasma % / %Unbound): 0.045
fraction unbound at 5 μM ([11]; both sexes, read-out: %Bound (converted)): 0.0453

Further lines, results first:

Recovery% (BL-AP) (MDCKII-MDR1 cells [2]): 96.11%
Recovery% (BL-AP) (Caco-2 cells): 100.41%
Papp A→B at 2 h, 1 μM (P-gp (MDR1)): 27.9 ×10⁻⁶ cm/s
Papp B→A at 2 h, 1 μM (P-gp (MDR1)): 31 ×10⁻⁶ cm/s
efflux ratio at 2 h, 1 μM (P-gp (MDR1)): 1.11
recovery (P-gp (MDR1)): 99.9%
Papp A→B at 2 h, 5 μM (in vitro): 23.1 ×10⁻⁶ cm/s
Papp B→A at 2 h, 5 μM (in vitro): 21.8 ×10⁻⁶ cm/s
efflux ratio at 2 h, 5 μM (in vitro): 0.95
recovery (in vitro): 106%
Structure (SMILES): COCCc1ccc(OCC(O)CNC(C)C)cc1 (centres unmarked) [Metoprolol]

inhibition at 20 min (CYP2D6): 91.7%
Structure (SMILES): Fc1ccc([C@@H]2CCNC[C@H]2COc2ccc3c(c2)OCO3)cc1 [Paroxetine]
